# From patent US20150359866A1, “TREATMENT OF CERVICAL AND RELATED […] TOPICAL IMMUNOMODULATORS” (THE JOHNS HOPKINS UNIVERSITY, priority 2014, published 2015)
# Test system: CIN2/3 lesions associated with HPV genotypes other than HPV16
# Assay: Clinical trial of topical imiquimod on CIN 2/3 lesions (lesion regression)
# Assay type: in vivo, human
# Description: Treatment protocol. In an embodiment, patients are screened at their initial colposcopic evaluation for referral for evaluation of high grade pap smears. Immunocomptetent patients with biopsy-confirmed CIN2/3 which is HPV16 negative will be eligible for enrollment. Both treatment and control groups will be assessed for histologic diagnosis at week 15, change in cervical quantitative HPV viral load, safety, toxicity, tolerability, and for measures of local mucosal immune responses. Patients will be given imiquimod (5%) or vehicle at Day 0, week 4, and week 8 and then histological diagnosis is determined at week 15.
# Imiquimod administration on the lesion at each vaccination. In an embodiment, patients received a total of three applications of imiquimod directly on the cervical lesion, one application at the time of each vaccination. One single use packet containing 250 mg of 5% imiquimod was used for each treatment. After insertion of a vaginal speculum, the cream is applied directly to the lesion by the PI, using a cotton-tipped applicator. The speculum is withdrawn, and a tampon is placed as a medication barrier. Patients will be instructed to leave the tampon in place for about 4 to 6, and no more than 10 hours. […]
# Clinical trial results. […] Subjects were monitored for mucosal irritation. […]
structure (smiles),measurement,setting,value
"CC(C)Cn1cnc2c(N)nc3ccccc3c21 [imiquimod, 1-(2-methylpropyl)-1H-imidazo[4,5-c]quinolin-4-amine]",rate of regression relative to untreated HPV16-negative CIN2/3 patients,"FIG. 4, untreated rate in same timeframe 30-40%",nearly double
same,rate of regression of CIN2/3 lesions,"HPV16-negative subjects, 12.5 mg imiquimod in 250 mg cream applied to the cervical lesion three times at four-week intervals, assessed eight weeks after third application, 10/16 subjects",62.5%
